Laboratory results taken from patent US20230321086A1, “METHODS AND MATERIALS FOR INHIBITING NICOTINAMIDE PHOSPHORIBOSYLTRANSFERASE ACTIVITY” (Universiy of Pittsburgh - Of the Commonwealth System of …, priority 2020, published 2023).

Tests used:
NAMPT = NAMPT (Homo sapiens, UniProt P43490); assay: Assay for in vitro NAMPT activity via NMN assessment; format: biochemical; details: read-out: A: NAMPT enzyme inhibitory activity, IC50
Protocol: The following were added to a well: 20 μL 2× test compound in Basic Buffer (0.02% BSA, 2 mM DTT, 12 mM MgCl2, 50 mM Tris pH7.5); 10 μL 8 μg/mL NAMPT, and 200 μM PRPP working solution (or PRPP working solution to background wells). 10 μL 100 μM NAM working solution was added to start the reaction. The plate was sealed and incubated for 45 minutes at 37° C. After incubation, 10 μL 20% acetophenone in DMSO, 10 μL 2N KOH, and 20 μL 88% formic acid were added. The plate was sealed and incubated for 30 minutes at 37° C. After incubation, fluorescence at Ex/Em 387/441 was read.
In each table header, A: NAMPT enzyme inhibitory activity, IC50 (μM); B: Cellular NAD inhibitory activity, IC50 (μM); and C: change in NAD levels in response to test compound, shown as % of NAD activity in the absence of test compound. […] A percentage of 100 percent would indicate no increase or decrease in NAD levels as compared to that measured for untreated control cells, while a percentage of 50 percent would indicate a decrease in NAD levels of 50 percent as compared to that measured for untreated control cells.

A431 cells = assay: Assay for total NADH and NAD+ measurements in cells; format: cell-based; details: Homo sapiens, A-431, read-out: B: Cellular NAD inhibitory activity, IC50
Outline: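 Cells (2,000/well) treated with compounds overnight, washed with PBS containing 1 mM CaCl2 and MgCl2, lysed with 0.4% DTAB in phosphate buffer pH 8.0. Reaction mix added and fluorescence (Ex/Em 530/585) followed over 8 cycles every 92 seconds; NAD given as % of untreated control.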

Sequence of NAMPT (P43490 whole entry, species assumed): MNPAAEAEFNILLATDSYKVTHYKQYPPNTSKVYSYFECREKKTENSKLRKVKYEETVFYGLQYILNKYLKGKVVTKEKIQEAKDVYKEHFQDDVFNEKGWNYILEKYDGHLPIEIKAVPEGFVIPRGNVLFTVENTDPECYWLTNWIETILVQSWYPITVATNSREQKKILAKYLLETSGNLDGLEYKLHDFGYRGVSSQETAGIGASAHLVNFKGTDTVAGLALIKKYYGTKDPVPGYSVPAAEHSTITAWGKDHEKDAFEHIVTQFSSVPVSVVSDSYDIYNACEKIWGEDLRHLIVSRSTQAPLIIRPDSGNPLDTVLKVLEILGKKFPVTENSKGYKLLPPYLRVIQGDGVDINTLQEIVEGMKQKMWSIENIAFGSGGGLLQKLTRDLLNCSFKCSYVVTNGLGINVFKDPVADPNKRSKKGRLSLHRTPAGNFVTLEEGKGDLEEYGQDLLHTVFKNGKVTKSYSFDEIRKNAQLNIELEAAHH

SMILES | IC50 (NAMPT) [µM] | IC50 (A431 cells) [µM]
O=C(Nc1cnc2nc(-c3ccc(F)cc3)c(-c3ccc(F)cc3)nc2c1)N1Cc2ccccc2C1 [BC20317] | < 1 | < 1
O=C(NCCc1cn[nH]c1)Nc1cnc2nc(-c3ccc(F)cc3)c(-c3ccc(F)cc3)nc2c1 [BC20318] | < 1 | < 1
O=C(NCCc1c[nH]cn1)Nc1cnc2nc(-c3ccc(F)cc3)c(-c3ccc(F)cc3)nc2c1 [BC20319] | < 1 | < 1
Nc1ccc(CCNC(=O)Nc2cnc3nc(-c4ccc(F)cc4)c(-c4ccc(F)cc4)nc3c2)cn1 [BC20320] | < 1 | < 1
O=C(Nc1cnc2nc(-c3ccc(F)cc3)c(-c3ccc(F)cc3)nc2c1)N1Cc2cccnc2C1 [BC20321] | < 1 | < 1
Fc1ccc(-c2nc3ccc(NC(=S)N4Cc5ccccc5C4)cc3nc2-c2ccc(F)cc2)cc1 [BC20322] | < 1 | < 1
Nc1ccc(CNC(=S)Nc2ccc3nc(-c4ccc(F)cc4)c(-c4ccc(F)cc4)nc3c2)cn1 [BC20323] | < 1 | < 1
Nc1ccc(CNC(=S)Nc2cnc3nc(-c4ccc(F)cc4)c(-c4ccc(F)cc4)nc3c2)cn1 [BC20324] | < 1 | < 1
O=C(NCc1cnc2nc(-c3ccc(F)cc3)c(-c3ccc(F)cc3)nc2c1)Nc1cccnc1 [BC20325] | < 1 | < 1
O=C(NCc1cccnc1)NCc1cnc2nc(-c3ccc(F)cc3)c(-c3ccc(F)cc3)nc2c1 [BC20326] | 1 to 25 | 1 to 25
O=C(NCc1cnc2nc(-c3ccc(F)cc3)c(-c3ccc(F)cc3)nc2c1)N1Cc2ccncc2C1 [BC20327] | < 1 | < 1

Other lines, results leading:

IC50 (NAMPT) [µM] | IC50 (A431 cells) [µM] | SMILES
< 1 | < 1 | O=C(NCc1cnc2nc(-c3ccc(F)cc3)c(-c3ccc(F)cc3)nc2c1)c1cc2ccncc2o1 [BC20328]
≥ 25 | 1 to 25 | O=C(NCc1cnc2nc(-c3ccc(F)cc3)c(-c3ccc(F)cc3)nc2c1)c1cc2ccccc2s1 [BC20329]
< 1 | < 1 | O=C(Nc1ccc2nc(-c3ccc(F)cc3)c(-c3ccc(F)cc3)nc2c1)N1Cc2ccccc2C1 [BC20330]
< 1 | < 1 | Nc1ccc(CNC(=O)Nc2ccc3nc(-c4ccc(F)cc4)c(-c4ccc(F)cc4)nc3c2)cn1 [BC20331]
< 1 | < 1 | O=C(NCc1cnc2nc(-c3ccc(F)cc3)c(-c3ccc(F)cc3)nc2c1)N1Cc2cccnc2C1 [BC20332]
< 1 | < 1 | O=C(Nc1ccc2nc(-c3ccc(F)cc3)c(-c3ccc(F)cc3)nc2c1)N1Cc2cccnc2C1 [BC20333]
< 1 | < 1 | O=C(Nc1cnc2nc(-c3ccc(F)cc3)c(-c3ccc(F)cc3)nc2c1)N1Cc2ccncc2C1 [BC20334]
